Two compounds from patent publication US20170027941A1, “Bruton's Tyrosine Kinase Inhibitor Combinations and Uses Thereof” (Pharmacyclics LLC, priority 2015, published 2017) can be followed below.

Assay type in all cases: cell-based
For assay [1], the system named is pAkt. Description: Western blot of pAkt in renal cancer cell lines. The source says:
(§1) Whole cell lysates in 1× sample buffer (Invitrogen) were electrophoresed on a 4%-12% Bis-Tris gel. After transferring the proteins onto a PVDF membrane, the blot was probed by antibodies, and the signal was detected using the Odyssey imager (LI-COR Biosciences). Paired mouse and rabbit antibodies were used to probe the total protein, and the corresponding phosphorylated proteins. The effect of ibrutinib treatment, with and without EGF stimulation/induction, on various proteins was studied. A one-hour pre-treatment with ibrutinib and a 10-minute stimulation with EGF was conducted. […] As such, ibrutinib ameliorates the effect (i.e., the undesired effects) of mTOR inhibitor alone.
(§2) Cell lysates were prepared from RCC cells which were treated with different concentrations of pazopanib for overnight incubation. Antibodies that correlate to the proteins of interest were used for detection.
In general terms: In western blotting, separated proteins are transferred to a membrane and probed.

The subject of assay [2] is pEGFR. Kind of assay: Western blot of pEGFR in renal cancer cell lines. Conditions: A498, 769-P, RENCA, ACHN; one-hour pre-treatment, 10-minute EGF stimulation.
Excerpt: as §1

Assay [3] deals with pERK. Description: Western blot of pERK in renal cancer cell lines. As to conditions: A498, 769-P, RENCA, ACHN; one-hour pre-treatment, 10-minute EGF stimulation.
Excerpt: as §1, §2

Regarding `CO[C@H]1C[C@@H]2CC[C@@H](C)[C@@](O)(O2)C(=O)C(=O)N2CCCC[C@H]2C(=O)O[C@H]([C@H](C)C[C@@H]2CC[C@@H](OCCO)[C@H](OC)C2)CC(=O)[C@H](C)/C=C(\C)[C@@H](O)[C@@H](OC)C(=O)[C@H](C)C[C@H](C)/C=C/C=C/C=C/1C` [everolimus], the “pAkt (both pAkt T308 and pAkt S473)” value in assay [1] (ACHN cell line, 24 h treatment, FIG. 8) is listed as “induced up-regulation of pAkt”.
As to `C=CC(=O)N1CCC[C@@H](n2nc(-c3ccc(Oc4ccccc4)cc3)c3c(N)ncnc32)C1` [ibrutinib, 1-((R)-3-(4-amino-3-(4-phenoxyphenyl)-1H-pyrazolo[3,4-d]pyrimidin-1-yl)piperidin-1-yl)prop-2-en-1-one], the pAkt result in assay [1] (A498, 769-P, RENCA, ACHN, one-hour pre-treatment, 10-minute EGF stimulation) was “limited impacts”. Besides, the “EGF-induced pEGFR” value in assay [2] is reported as “inhibits EGF-induced pEGFR”. For the same compound, in assay [3], the pERK entry was “limited impacts”.
